pEC50: −log10 of the molar value. Like-named read-outs stand apart in the source and are kept apart here. Where only a bound is given, the exact number is not on record here.

In this experiment the test system is HCV 1b-377-neo replicon cells. Briefly: HCV replicon assay, HCV 1b-377-neo replicon cells (1b FRET). The note with it: HCV 1b-377-neo replicon cells, HCV 1b genotype; for pEC50: read-out: EC50 range against HCV 1b (Table 2, Range). Format: cell-based, Hepatitis C virus genotype 1b. The procedure, abridged: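 FRET-based replicon assay in HCV 1b-377-neo cells, including a comparison line carrying the NS5A Y2065H mutation that confers resistance to a reference compound.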

Broadly, the pEC50 is the negative decadic logarithm of the EC50, by convention in mol/L. With `COC(=O)NC1(C(=O)N2CCC[C@H]2c2ncc(-c3ccc(-c4ccc(-c5cnc([C@@H]6CCCN6C(=O)C6(NC(=O)OC)CC6)[nH]5)cc4)cc3)[nH]2)CC1` [Example M6, dimethyl (4,4′-biphenyldiylbis(1H-imidazole-5,2-diyl(2S)-2,1-pyrrolidinediylcarbonyl-1,1-cyclopropanediyl))bis-carbamate], the pEC50 (Hepatitis C virus) was 5.00 to 6.00.
On to `COC(=O)NC(C)(C)C(=O)N1CCC[C@H]1c1ncc(-c2ccc(-c3ccc(-c4cnc([C@@H]5CCCN5C(=O)C(C)(C)NC(=O)OC)[nH]4)cc3)cc2)[nH]1` [Example M7, methyl (2-((2S)-2-(5-(4′-(2-((2S)-1-(2-((methoxycarbonyl)amino)-2-methylpropanoyl)-2-pyrrolidinyl)-1H-imidazol-5-yl)-4-biphenylyl)-1H-imidazol-2-yl)-1-pyrrolidinyl)-1,1-dimethyl-2-oxoethyl)carbamate], for which the “EC50 range against HCV 1b (Table 2, Range)” value (shortened to “EC50 range against HCV 1b”) is “>A”.
`C[C@H](C(=O)N1CCC[C@H]1c1ncc(-c2ccc(-c3ccc(-c4cnc([C@@H]5CCCN5C(=O)[C@@H](C)N(C)C)[nH]4)cc3)cc2)[nH]1)N(C)C` [Example M8, (2R,2′R)-1,1′-(4,4′-biphenyldiylbis(1H-imidazole-5,2-diyl(2S)-2,1-pyrrolidinediyl))bis(N,N-dimethyl-1-oxo-2-propanamine)]: the pEC50 (Hepatitis C virus) was 5.00 to 6.00.
Take `CCN(CC)[C@H](C)C(=O)N1CCC[C@H]1c1ncc(-c2ccc(-c3ccc(-c4cnc([C@@H]5CCCN5C(=O)[C@@H](C)N(CC)CC)[nH]4)cc3)cc2)[nH]1` [Example M9, (2R,2′R)-1,1′-(4,4′-biphenyldiylbis(1H-imidazole-5,2-diyl(2S)-2,1-pyrrolidinediyl))bis(N,N-diethyl-1-oxo-2-propanamine)]: the pEC50 (Hepatitis C virus) is 6.00 to 7.00.
On to `CCN(CC)[C@@H](C(=O)N1CCC[C@H]1c1ncc(-c2ccc(-c3ccc(-c4cnc([C@@H]5CCCN5C(=O)[C@@H](C(C)C)N(CC)CC)[nH]4)cc3)cc2)[nH]1)C(C)C` [Example M10, (2R,2′R)-1,1′-(4,4′-biphenyldiylbis(1H-imidazole-5,2-diyl(2S)-2,1-pyrrolidinediyl))bis(N,N-diethyl-3-methyl-1-oxo-2-butanamine)], for which the “EC50 range against HCV 1b” value is “>A”.
Turning to `COC(=O)N(C)[C@H](C(=O)N1CCC[C@H]1c1ncc(-c2ccc(-c3ccc(-c4cnc([C@@H]5CCCN5C(=O)[C@H](C(C)C)N(C)C(=O)OC)[nH]4)cc3)cc2)[nH]1)C(C)C` [Example M11, methyl ((1S)-1-(((2S)-2-(5-(4′-(2-((2S)-1-((2S)-2-((methoxycarbonyl)(methyl)amino)-3-methylbutanoyl)-2-pyrrolidinyl)-1H-imidazol-5-yl)-4-biphenylyl)-1H-imidazol-2-yl)-1-pyrrolidinyl)carbonyl)-2-methylpropyl)methyl-carbamate], under “Hepatitis C virus”, the pEC50 is 7.00 to 9.00.
Same read-out and setting: to `COC(=O)N[C@H](C(=O)N1CCC[C@H]1c1ncc(-c2ccc(-c3ccc(-c4cnc([C@@H]5CCCN5C(=O)[C@@H](NC(=O)OC)c5ccccc5)[nH]4)cc3)cc2)[nH]1)c1ccccc1` [Example M12, dimethyl (4,4′-biphenyldiylbis(1H-imidazole-5,2-diyl(2S)-2,1-pyrrolidinediyl((1S)-2-oxo-1-phenyl-2,1-ethanediyl)))biscarbamate] belongs 7.00 to 9.00.
Regarding `CCCN(CCC)[C@H](C)C(=O)N1CCC[C@H]1c1ncc(-c2ccc(-c3ccc(-c4cnc([C@@H]5CCCN5C(=O)[C@@H](C)N(CCC)CCC)[nH]4)cc3)cc2)[nH]1` [Example M13, N,N′-(4,4′-biphenyldiylbis(1H-imidazole-5,2-diyl(2S)-2,1-pyrrolidinediyl((2R)-1-oxo-1,2-propanediyl)))bis(N-propyl-1-propanamine)], the pEC50 (Hepatitis C virus) was 6.00 to 7.00.
Still for that read-out and setting: to `COC(=O)N[C@H](C(=O)N1CCC[C@H]1c1ncc(-c2ccc(-c3ccc(-c4cnc([C@@H]5CCCN5C(=O)[C@@H](NC(=O)OC)C(C)(C)O)[nH]4)cc3)cc2)[nH]1)C(C)(C)O` [Example M14, methyl ((1S)-2-hydroxy-1-(((2S)-2-(5-(4′-(2-((2S)-1-((2S)-3-hydroxy-2-((methoxycarbonyl)amino)-3-methylbutanoyl)-2-pyrrolidinyl)-1H-imidazol-5-yl)-4-biphenylyl)-1H-imidazol-2-yl)-1-pyrrolidinyl)carbonyl)-2-methylpropyl)carbamate] belongs 6.00 to 7.00.
The same measure, in the same setting: the figure for `COC(=O)N[C@H](C(=O)N1CCC[C@H]1c1ncc(-c2ccc(-c3ccc(-c4cnc([C@@H]5CCCN5C(=O)[C@@H](NC(=O)OC)[C@@H](C)O)[nH]4)cc3)cc2)[nH]1)[C@@H](C)O` [Example M15, methyl ((1S,2R)-2-hydroxy-1-(((2S)-2-(5-(4′-(2-((2S)-1-((2S,3R)-3-hydroxy-2-((methoxycarbonyl)amino)butanoyl)-2-pyrrolidinyl)-1H-imidazol-5-yl)-4-biphenylyl)-1H-imidazol-2-yl)-1-pyrrolidinyl)carbonyl)propyl)carbamate] is 6.00 to 7.00; for `COC(=O)N[C@H](C(=O)N1CCC[C@H]1c1ncc(-c2ccc(-c3ccc(-c4cnc([C@@H]5CCCN5C(=O)[C@@H](NC(=O)OC)[C@H](C)O)[nH]4)cc3)cc2)[nH]1)[C@H](C)O` [Example M16, methyl ((1S,2S)-2-hydroxy-1-(((2S)-2-(5-(4′-(2-((2S)-1-((2S,3S)-3-hydroxy-2-((methoxycarbonyl)amino)butanoyl)-2-pyrrolidinyl)-1H-imidazol-5-yl)-4-biphenylyl)-1H-imidazol-2-yl)-1-pyrrolidinyl)carbonyl)propyl)carbamate] it is 5.00 to 6.00; for `COC(=O)N[C@@H](C)C(=O)N1CCC[C@H]1c1ncc(-c2ccc(-c3ccc(-c4cnc([C@@H]5CCCN5[C@@](C)(C=O)NC(=O)OC)[nH]4)cc3)cc2)[nH]1` [Example M17, methyl ((1S)-1-((2S)-2-(5-(4′-(2-((2S)-1-(N-(methoxycarbonyl)-L-alanyl)-2-pyrrolidinyl)-1H-imidazol-5-yl)-4-biphenylyl)-1H-imidazol-2-yl)-1-pyrrolidinyl)-1-methyl-2-oxoethyl)carbamate] it is 6.00 to 7.00.
On the same count and under the same terms, the figure for `COC(=O)N[C@H](C)C(=O)N1CCC[C@H]1c1ncc(-c2ccc(-c3ccc(-c4cnc([C@@H]5CCCN5C(=O)[C@@H](C)NC(=O)OC)[nH]4)cc3)cc2)[nH]1` [Example M18, methyl ((1R)-2-((2S)-2-(5-(4′-(2-((2S)-1-(N-(methoxycarbonyl)-D-alanyl)-2-pyrrolidinyl)-1H-imidazol-5-yl)-4-biphenylyl)-1H-imidazol-2-yl)-1-pyrrolidinyl)-1-methyl-2-oxoethyl)carbamate] is 5.00 to 6.00.
Turning to `C[C@@H](C(=O)N1CCC[C@H]1c1ncc(-c2ccc(-c3ccc(-c4cnc([C@@H]5CCCN5C(=O)[C@H](C)N(C)C)[nH]4)cc3)cc2)[nH]1)N(C)C` [Example M19, (2S,2′S)-1,1′-(4,4′-biphenyldiylbis(1H-imidazole-5,2-diyl(2S)-2,1-pyrrolidinediyl))bis(N,N-dimethyl-1-oxo-2-propanamine)], the “EC50 range against HCV 1b” value is listed as “>A”.
In the case of `CC[C@H](NC(=O)OC)C(=O)N1CCC[C@H]1c1ncc(-c2ccc(-c3ccc(-c4cnc([C@@H]5CCCN5C(=O)[C@H](CC)NC(=O)OC)[nH]4)cc3)cc2)[nH]1` [Example M21, dimethyl (4,4′-biphenyldiylbis(1H-imidazole-5,2-diyl(2S)-2,1-pyrroldinediyl((2S)-1-oxo-1,2-butanediyl)))biscarbamate], the pEC50 was 7.00 to 9.00.

Values taken from patent publication US8574563B2 (Bristol-Myers Squibb Company, priority 2006, dated 2013).
